Test results from ChEMBL document CHEMBL1134087, “Inhibitors of the bacterial cell wall biosynthesis enzyme MurC” (Bioorg Med Chem Lett, 2001).

Tests used:
[1] = Tested for inhibitory activity against UDP-N-acetylmuramoyl-L-alanine synthetase from Escherichia coli by malachite green assay
[2] = Tested for inhibitory activity against UDP-N-acetylmuramoyl-L-alanine synthetase from Escherichia coli by malachite green assay; Inactive

IC50 [1] [µM]	IC50 [2]	Structure (SMILES)
> 100		CC(=O)N[C@H]1[C@@H](OP(=O)(O)O)O[C@H](CO)[C@@H](O)[C@@H]1OCP(=O)(O)CC(C)C(=O)O (some centres undefined)
0.049		CC(=O)N[C@H]1C(OP(=O)(O)OP(=O)(O)OC[C@H]2O[C@@H](n3ccc(=O)[nH]c3=O)[C@H](O)[C@@H]2O)O[C@H](CO)[C@@H](O)[C@@H]1OCP(=O)(O)CC(C)C(=O)O (some centres undefined)
	Not Active	CC(CP(=O)(O)COCCCOP(=O)(O)O)C(=O)O (centres undefined)
60		CC(CP(=O)(O)COCCCOP(=O)(O)OP(=O)(O)OC[C@H]1O[C@@H](n2ccc(=O)[nH]c2=O)[C@H](O)[C@@H]1O)C(=O)O (some centres undefined)
